Here are results for three compounds from ChEMBL document CHEMBL3414500, “New polycyclic dual inhibitors of the wild type and the V27A mutant M2 channel of the influenza A virus with unexpected binding mode” (Eur J Med Chem, 2015).

For this experiment, the target named is Matrix protein 2 (Influenza A virus (A/Udorn/307/1972(H3N2)), UniProt P0DOF8, V27A).

The term IC50 denotes the concentration that inhibits the measured activity by half. Take `C1=C[C@H]2[C@H]3[C@H]4[C@@H]1[C@@H]1[C@H]2[C@@H]2[C@H]3[C@@H]3CNC[C@@H]3[C@H]4[C@H]12`: the IC50 amounted to 185 µM. In the case of `C1C[C@H]2[C@H]3[C@H]4[C@@H]1[C@@H]1[C@H]2[C@@H]2[C@H]3[C@@H]3CNC[C@@H]3[C@H]4[C@H]12` it was 17.2 µM; in that of `N=C(N)N1C[C@@H]2[C@H](C1)[C@@H]1[C@@H]3[C@H]4CC[C@H]5[C@@H]3[C@H]2[C@H]2[C@@H]5[C@@H]4[C@@H]12`, 32.2 µM.
